Laboratory results reported in patent US20220267720A1, “FIBROSIS-SPECIFIC CELL CULTURE SUBSTRATE AND METHODS OF USE” (Xylyx Bio, Inc., priority 2019, published 2022).

Key:
[1] = Diffusivity of fluorescent trackers through liver ECM hydrogels; format: physicochemical
Excerpt: Physiochemical characterizations of fibrotic and normal human liver matrix hydrogels.

[2] = tested on: human hepatic stellate cells (HSC); assay: IC50 response of hepatic stellate cells to Erlotinib, XTT assay; format: cell-based; conditions: HSC on fibrotic or normal soluble ECM or plastic, 72 hours with drug
Description: Methods: Primary human hepatocytes, HepG2 cells (human hepatocarcinoma cell type commonly used to model hepatocytes), and human hepatic stellate cells (HSC) were cultured for up to 7 days on normal or fibrotic human liver matrix scaffolds, Matrigel, collagen I hydrogels, and/or tissue culture plates (plastic) with or without collagen I coating.
HSCs differentially expressed fibrosis-related genes ACTA2, COL1A1 LOXL2 and PDGFR2 in liver scaffolds versus tissue plastic and Coll coated plates (FIG. 11B). […] Although morphologic similarities were observed between HSC cultured in fibrotic and normal liver ECM scaffolds, morphology differed from HSC cultured on artificial substrates (FIG. 11C). […] To test whether HSC cultured on different ECM respond differently to drug treatment then cells grown in standard 2D we measured the IC50 response of HSC to Erlotinib, an inhibitor of the epidermal growth factor receptor (EGFR) tyrosine, used for the treatment for several cancers and currently is in clinical trials for the treatment of hepatocarcinomatous originating from cirrhotic livers (FIG. 11F). 5000 cells were plated on 96 wells on fibrotic or normal ECM soluble ECM and on plastic. 24 hours later Erlotinib or DMSO vehicle in different concentrations was added. Cells were grown with drugs for 72 hours (with media+drug replenished every day). Cell number were assed using a standard XTT assay.

[3] = tested on: pulmonary fibroblasts; assay: Growth curves of pulmonary fibroblasts in IPF and normal lung matrix scaffolds exposed to antifibrotic agent; format: cell-based, human
[4] = tested on: pulmonary fibroblasts; assay: Gene expression of fibroblasts in IPF matrix scaffolds treated with antifibrotic agent; format: cell-based, human
[5] = tested on: Normal human pulmonary fibroblasts; assay: Proliferation and myofibroblast differentiation assay in fibrotic human lung ECM hydrogel; format: cell-based
Description: Normal human pulmonary fibroblasts were cultured in fibrotic human lung ECM hydrogel for up to 5 days and subjected to live cell imaging with CellTracker™ red, immunofluorescence imaging in multi-well plates, and a common cell-based proliferation assay. Cells were cultured in fibrotic lung ECM hydrogel for 2 days, then TGFβ1 (5 nM) was added to induce myofibroblast differentiation, along with 2.7 mM Pirfenidone (FDA-approved gold standard anti-fibrotic drug) or DMSO vehicle ([…]) control for […] prior to assay readouts on day 5. […] After 48 hours, 1standard immunofluorescence staining was performed in situ in 96-well plates. Fibroblasts expressed vimentin, αSMA, and proliferation marker Ki67 (white arrows, FIG. 21B).

[6] = tested on: Normal HSC; assay: Cell-based proliferation assay of HSC in fibrotic human liver ECM hydrogel; conditions: TGFβ1 25 nM, Pirfenidone 2.7 mM, 3 days, readout day 5
Description: (§1) Normal HSC were cultured in fibrotic human liver ECM hydrogel for up to 5 days. Cells were cultured in fibrotic liver ECM hydrogel for 2 days, then TGFβ1 (25 nM) was added to induce activation, along with 2.7 mM Pirfenidone (FDA-approved gold standard anti-fibrotic drug) or DMSO vehicle (1%) control for 3 days prior to assay readouts on day 5. Cell-based proliferation assay, immunofluorescence imaging in multi-well plates, and Elisa for ProCollagen1 were performed. […] Conclusions: We confirmed compatibility of normal & fibrotic liver ECM hydrogel with common analytical techniques & assays used in early-stage drug development including discovery, screening, target validation.

[7] = tested on: Normal HSC; assay: Ki67 immunofluorescence imaging of HSC in fibrotic human liver ECM hydrogel; format: cell-based; conditions: for Ki67 positive cells after Pirfenidone treatment: 2.7 mM Pirfenidone; for proliferating Ki67+ cells (change): fibrotic liver ECM hydrogel, TGFβ1 25 nM, Pirfenidone 2.7 mM, readout day 5
Description: as §1

[8] = fibrotic lung ECM scaffolds compared to tissue culture plastic
[9] = fibroblasts in IPF matrix scaffolds

CC1=CC(C)(C)N(C)c2cc3[o+]c4cc5c(cc4c(-c4cc(NC(=O)c6ccc(CCl)cc6)ccc4C(=O)[O-])c3cc21)C(C)=CC(C)(C)N5C.CC1=CC(C)(C)N(C)c2cc3[o+]c4cc5c(cc4c(-c4ccc(NC(=O)c6ccc(CCl)cc6)cc4C(=O)[O-])c3cc21)C(C)=CC(C)(C)N5C [CellTracker Red CMTPX]
diffusion rate [1]: > 2 mm h^−1

C#Cc1cccc(Nc2ncnc3cc(OCCOC)c(OCCOC)cc23)c1 [Erlotinib]
IC50 response of HSC to Erlotinib [2]: lower for cells on normal ECM compared to fibrotic ECM and higher for plastic cultured cells

Cc1ccc(-c2ccc3c(ccc4sc5c(c43)NC[C@@H](C)NC5=O)n2)cn1 [PF3644022]
growth of fibroblasts, sensitivity and drug response ([3]; fibroblasts in IPF matrix scaffolds versus normal lung matrix scaffolds): greater sensitivity and drug response | growth of fibroblasts versus untreated cells ([3]; fibroblasts in normal lung matrix scaffolds, after 6 days): not significantly different from untreated cells | sensitivity and drug response [3, 8]: greater sensitivity and drug response | expression of ACTA2 [4, 9]: consistently reduced | expression of COL1A1 [4, 9]: consistently reduced | expression of YAP1 [4, 9]: No significant differences | expression of genes associated with ECM production [4, 8]: downregulation

Cc1ccc(=O)n(-c2ccccc2)c1 [Pirfenidone]
proliferation of lung fibroblasts ([5]; 2.7 mM Pirfenidone with TGFβ1 5 nM, readout day 5): decrease proliferation | cell proliferation [6]: slowed cell proliferation | Ki67 positive cells after Pirfenidone treatment ([7]; HSC on liver ECM): ~20% | Ki67 positive cells after Pirfenidone treatment ([7]; HSC on plastic): over 50% | proliferating Ki67+ cells (change) [7]: significantly reduced

TGFβ: transforming growth factor beta, added to induce activation / myofibroblast differentiation
αSMA ([5]; TGFβ1 5 nM): increased | cell proliferation [6]: accelerated cell proliferation | proliferating Ki67+ cells (change) [7]: significantly changed
